Assay results reported in patent US20260285853A1, “COMPOUNDS AND METHODS FOR MODULATING SPLICING” (REMIX THERAPEUTICS INC., priority 2023, published 2026).
Where two headings read alike, the source gives them in different places.

Tests used:
Assay type in all cases: cell-based
[1] = system: SH-SY5Y (human neuroblastoma) cells; test: Cell viability, Cell Titer Glo 2.0 assay; settings: read-out: Viability SHSY5Y.3 GI50
Method in brief: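 CellTiter-Glo 2.0 luminescence read-out after 72 h compound exposure (37 °C, 5% CO2); medium-only wells as blank. DMSO 0.1% final.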

HTT mRNA [2] = test: Splicing RT-qPCR assay (THP), Table 2A
HTT mRNA [3] = test: Gene panel canonical junction qPCR assay, decrease in CJ mRNA, Table 3
Method in brief: (§1)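 Cells: A673 or K562; 24 h compound exposure, 37 °C, 5% CO2; 11-pt 3-fold series from 10 uM final; DMSO ≤0.25%. Lysate → cDNA → qPCR with junction-spanning primers/probe for CJ transcript. ΔCt vs housekeeper, ΔΔCt vs DMSO, 2^(−ΔΔCt), % response, 4PL → IC50.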

MYB mRNA [4] = test: as above
Method in brief: as §1

MYB mRNA [5] = test: Splicing RT-qPCR assay (THP), Table 2A
[6] = Table 2A (THP), AJ mRNA increase, read-out: HTT AJ (increase in alternative junction mRNA, AC50)
[7] = Table 2A (THP), CJ mRNA decrease, read-out: HTT CJ (decrease in canonical junction mRNA, IC50)
[8] = decrease in canonical junction (CJ) mRNA, gene panel qPCR, Table 3
[9] = Table 2A (THP), AJ mRNA increase, read-out: MYB AJ (increase in alternative junction mRNA, AC50)
[10] = Table 2A (THP), CJ mRNA decrease, read-out: MYB CJ (decrease in canonical junction mRNA, IC50)
[11] = Table 2A, THP, HTT alternative junction (AJ) mRNA, read-out: HTT AJ (AC50, increase in alternative junction mRNA)
[12] = Table 2A, THP, HTT canonical junction (CJ) mRNA, read-out: HTT CJ (IC50, decrease in canonical junction mRNA)
[13] = decrease in CJ mRNA levels, canonical junction qPCR, gene panel
[14] = Table 2A, THP, MYB alternative junction (AJ) mRNA, read-out: MYB AJ (AC50, increase in alternative junction mRNA)
[15] = Table 2A, THP, MYB canonical junction (CJ) mRNA, read-out: MYB CJ (IC50, decrease in canonical junction mRNA)

Compound | GI50 [1] [nM] | IC50 (HTT mRNA [2]; [7]) [nM] | IC50 (HTT mRNA [3]; [8]) [nM] | IC50 (MYB mRNA [4]; [8]) [nM] | IC50 (MYB mRNA [5]; [10]) [nM] | IC50 (HTT mRNA [2]; [12]) [nM] | IC50 (HTT mRNA [3]; [13]) [nM] | IC50 (MYB mRNA [4]; [13]) [nM] | IC50 (MYB mRNA [5]; [15]) [nM] | AC50 (HTT mRNA [2]; [6]) [nM] | AC50 (MYB mRNA [5]; [9]) [nM] | AC50 (HTT mRNA [2]; [11]) [nM] | AC50 (MYB mRNA [5]; [14]) [nM]
CCNC1CCN(c2cc(F)c(C(=O)Nc3cn4cc(C)nc4c(N)c3OC)c3nn(C)cc23)CC1 [Compound 364, N-(8-amino-7-methoxy-2-methyl-imidazo[1,2-a]-pyridin-6-yl)-4-[4-(ethylamino)-1-piperidyl]-6-fluoro-2-methyl-indazole-7-carboxamide] | 1000 to 10000 | 1000 to 10000 | 1000 to 10000 | < 100 | 100 to 1000 |  |  |  |  | 100 to 1000 | < 100 |  | 
CCNC1CCN(c2cc(F)c(C(=O)Nc3cn4ccnc4nc3OC)c3nn(C)cc23)CC1 [Compound 692, 4-[4-(ethylamino)-1-piperidyl]-6-fluoro-N-(7-methoxyimidazo[1,2-a]pyrimidin-6-yl)-2-methyl-indazole-7-carboxamide] | 1000 to 10000 |  |  |  |  | 1000 to 10000 | 1000 to 10000 | < 100 | < 100 |  |  | 100 to 1000 | < 100
CCNC1CCN(c2ccc(C(=O)Nc3cn4cc(C)nc(CNS(C)(=O)=O)c4n3)c3nn(C)cc23)CC1 [Compound 884] | > 10000 |  |  |  |  | > 10000 | > 10000 | 1000 to 10000 | 1000 to 10000 |  |  | > 10000 | 1000 to 10000
COc1cc2c(N3C[C@H](C)N[C@@H](C)C3)ccc(C(=O)Nc3cc(F)c4nn(C)cc4c3)n2n1 [Compound 697, 4-[(3S,5S)-3,5-dimethylpiperazin-1-yl]-N-(7-fluoro-2-methyl-indazol-5-yl)-2-methoxy-pyrazolo[1,5-a]pyridine-7-carboxamide] | < 100 |  |  |  |  | 100 to 1000 | 100 to 1000 | < 100 | < 100 |  |  | < 100 | < 100
Cc1cn2cc(NC(=O)c3ccc(N4CCC(NC5CC5)CC4)c4cn(C)nc34)nc2c(CO)n1 [Compound 846, 4-[4-(cyclopropylamino)-1-piperidyl]-N-[8-(hydroxymethyl)-6-methyl-imidazo[1,2-a]pyrazin-2-yl]-2-methyl-indazole-7-carboxamide] | 100 to 1000 |  |  |  |  | 100 to 1000 | 100 to 1000 | 100 to 1000 | 100 to 1000 |  |  | 100 to 1000 | 100 to 1000
COc1nc2c(C(=O)Nc3cc(F)c4nn(C)cc4c3)ccc(N3CCN(C)CC3)c2s1 [Compound 789] | 100 to 1000 |  |  |  |  | 100 to 1000 | 100 to 1000 | < 100 | < 100 |  |  | 100 to 1000 | < 100
Cc1cn2cc(NC(=O)c3ccc(N4CCC(NC5CC5)CC4)c4cn(C)nc34)nc2c(Cn2cnc3c(N)ncnc32)n1 [Compound 830] | > 10000 |  |  |  |  | > 10000 | > 10000 | > 10000 | > 10000 |  |  | > 10000 | > 10000

Second part, led by results:

GI50 [1] [nM] | IC50 (HTT mRNA [2]; [7]) [nM] | IC50 (HTT mRNA [3]; [8]) [nM] | IC50 (MYB mRNA [4]; [8]) [nM] | IC50 (MYB mRNA [5]; [10]) [nM] | IC50 (HTT mRNA [2]; [12]) [nM] | IC50 (HTT mRNA [3]; [13]) [nM] | IC50 (MYB mRNA [4]; [13]) [nM] | IC50 (MYB mRNA [5]; [15]) [nM] | Compound | AC50 (HTT mRNA [2]; [6]) [nM] | AC50 (MYB mRNA [5]; [9]) [nM] | AC50 (HTT mRNA [2]; [11]) [nM] | AC50 (MYB mRNA [5]; [14]) [nM]
1000 to 10000 | 1000 to 10000 | 1000 to 10000 | 1000 to 10000 | 1000 to 10000 |  |  |  |  | Cc1cc2sc(NC(=O)c3ccc(N4CCC(NC5CC5)CC4)c4cn(C)nc34)cc2c(C)n1 [Compound 559, 4-[4-(cyclopropylamino)-1-piperidyl]-N-(4,6-dimethyl-thieno[3,2-c]-pyridin-2-yl)-2-methyl-indazole-7-carboxamide] | 1000 to 10000 | 1000 to 10000 |  | 
1000 to 10000 | > 10000 | > 10000 | 100 to 1000 | 100 to 1000 |  |  |  |  | CNCC1CCN(c2ccc(C(=O)Nc3cc4cn(C)nc4cc3OC)c3nn(C)cc23)C1 (stereo not shown) [Compound 538] | > 10000 | 100 to 1000 |  | 
1000 to 10000 | 1000 to 10000 | 1000 to 10000 | 1000 to 10000 | 1000 to 10000 |  |  |  |  | CCNC1CCN(c2cc(F)c(C(=O)Nc3cn4ccncc4n3)c3nn(C)cc23)CC1 [Compound 381, 4-[4-(ethylamino)-1-piper-idyl]-6-fluoro-N-imidazo [1,2-a]-pyrazin-2-yl-2-methyl-indazole-7-carboxamide] | 1000 to 10000 | 1000 to 10000 |  | 
